With `CCOc1ccc(-c2nnc3n2NC(c2ccccc2O)S3)cc1` (stereo unspecified), the melting point (usually the temperature of the solid-liquid transition) was determined as 177 °C. Turning to `O=C1NN(c2ccccc2)C(=O)C1=C1SC=C(c2ccccc2)S1`, the melting point was in the range of 288 to 290 °C.

Compound `Nc1csc(C(F)(F)F)c1-c1ccccc1` returned a melting point of 65 to 66 °C. As to `Cc1cc(S(=O)(=O)Cl)c(C)cc1Cl`, the melting point came out at 49 °C. `CC(C)(C)OC(=O)N1CCN(c2ccc(C=O)cn2)CC1` yielded a melting point of 126 to 128 °C.

As for `COC(=O)c1c(C(F)F)nc(C(F)(F)F)c(C2=NCCS2)c1CC(C)C`, the melting point was found to be 78 °C. Consider `ClCc1ccc(Br)cc1`, for which the melting point came to 50 °C. Turning to `Cc1c(C)c2c(c(C)c1O)CCC(C)(CCCC(C)CCCC(C)CCCC(C)C)O2` (stereo unspecified), the melting point lay in the range of 2.5 to 3.5 °C. As for `CC(=O)c1nc2ccccc2s1`, the figure is 109 to 112 °C. `O=S(=O)(c1ccc(O)cc1)c1ccc(O)cc1` showed a melting point of 248 °C. As for `Cc1cc(NN)nc2c1c(C)nn2C`, the figure is 199 to 205 °C; as for `CC12CCC(C1(C)C)C(CC(Br)=Cc1ccccc1)(C1(CC(Br)=Cc3ccccc3)C(=O)C3(C)CCC1C3(C)C)C2=O` (stereo unspecified), 118 °C. As for `Cc1nc2ccccn2c1CO`, the figure is 157 to 158 °C. Take `COc1ccc(C(=O)O)c(Cl)c1OC`: the melting point is 193 to 196 °C. As for `CC(=NCc1ccccc1)c1c(O)c2ccccc2n(-c2ccccc2)c1=O`, the figure is 164 °C. `CC(=O)Oc1c(-c2ccccc2)[nH]c2cc3c(cc12)C(=O)C(c1ccccc1)=[N+]3[O-]` showed a melting point of 246 °C. As for `CC(=O)c1ccc(-c2ccc(Br)cc2)cc1`, the figure is 126 °C. As for `Nc1ccc(F)nc1`, the figure is 91 °C; as for `O=C(O)c1ccc(Oc2ccccc2)o1`, 126 to 127 °C.

`O=S(=O)(CF)c1ccccc1`: the melting point was determined as 53 °C. As for `CC(C)CCCC(C)C1CCC2C3CC(O)C4=CC(=O)CCC4(C)C3CCC12C` (stereo unspecified), the figure is 189 to 193 °C; as for `CN(C)c1ccc(C2C(C#N)=C(N)SC(N)=C2c2nc3ccccc3s2)cc1` (stereo unspecified), 211 °C; as for `NC(=S)c1cnccc1C(F)(F)F`, 153 to 156 °C. In turn, `COC(=O)[C@H]1CC[C@H](C(=O)OC)CC1` registered a melting point of 67 to 70 °C. `CC(=O)c1c(O)c(C)c(O)c(Cc2c(O)c3c(c(C(=O)C=Cc4ccccc4)c2O)OC(C)(C)C=C3)c1O` gave a melting point of 212 °C. As for `O=C1NC(=O)c2cc([N+](=O)[O-])ccc21`, the figure is 206 °C. On to `O=C(O)c1cc(I)c(I)c(I)c1`, for which the melting point was found to be 292 °C.

For `CC12CCC(O)CC1CCC1C2CCC2(C)C1CCC21OCCO1` (stereo unspecified), the melting point came to 151 °C. `c1ccc2c(c1)-c1ccccc1C2c1ccncc1` returned a melting point of 142 to 145 °C. As for `CCOC(=O)C(Cc1ccccc1)(Cc1ccccc1)C(C)=O`, the figure is 58 °C; as for `Cc1cc(=O)oc2cc(O)cc(O)c12`, 299 °C.

The compound `COc1ccc(C2(C(=O)O)CC2)cc1` had a melting point of 127 to 132 °C.

As for `COc1ccc(-c2nnc3n2NC(c2ccccc2)S3)cc1` (stereo unspecified), the melting point is 134 °C. As for `CCOC(=O)C(C#N)=NNc1ccc(C(=O)O)cc1`, the figure is 219 °C. As for `Cc1cc(C#N)ccc1F`, the figure is 55 °C.

The compound `O=C(O)c1cnc2ccccc2n1` showed a melting point of 206 °C. As for `COC(=O)CSCCC(N)=S`, the figure is 78 to 81 °C; as for `Cc1c(C)c(C)c2c(c1C)CCC2=O`, 154 °C; as for `Cc1ccccc1/C=C(\C#N)c1nc2ccccc2s1`, 148 °C. Regarding `O=C(Nc1ccc(Cl)cc1)Nc1ccc(Cl)c(Cl)c1`, the melting point was found to be 256 °C. `Ic1nccn1C(c1ccccc1)(c1ccccc1)c1ccccc1` gave a melting point of 171 °C.

For the origin of these results see a melting point compilation (Tetko et al.).
